Measured values as given in patent US20050070602A1, “Method of modulating immune response by administration of immuno-activation agent” (priority 2003, published 2005).
Where “and” joins values, the source holds several entries; their conditions need not be identical. Equal values may be shown once.

Key:
[1] = system: B cells and NK cells in the peripheral blood; assay: B and NK cells in peripheral blood by direct fluorescent antibody flow cytometry; format: in vivo, mice
From the text: (§1) Five week-old BALB/c (nu/nu) male mice purchased from Charles River Laboratories (Wilmington, Mass.) were housed in a barrier facility with 12-h light/dark cycles; tap water and diets provided ad libitum. They were randomly divided into two groups of nine mice. […] The diets began one week prior to inoculation of PC-3 cells and continued until termination of experiments. The xenografted tumors were established by a single s.c. injection in the flank of 0.8×10^6 PC-3 cells suspended in ice-cold matrigel (sigma). The tumor volumes were measured every 7-8 days and calculated by length×width×height×0.5236. Animal body weights were recorded weekly and at autopsy; food consumption was determined twice per week. Two hours before the mice were euthanized, 5-bromo-2′-deoxyuridine (BrdU) (10 mg/kg body weight) was injected in the peritoneum for in vivo labeling of proliferating cells. At autopsy, xenograft tumors were weighed and frozen in liquid nitrogen or fixed in 10% formalin and embedded in paraffin. The BrdU-labeled cells of paraffin embedded tissues on slides were detected employing a monoclonal anti-BrdU antibody from a BrdU detection kit (Roche Molecular Biochemicals) according to manufacturer's direction. The mean numbers of labeled cells from multiple fields were calculated. The comparisons between control and experimental groups were performed with Student's t test.
Monoclonal antibodies against mouse B cell antigen CD19 or against Pan NK cell antigen CD49b were used. A mouse isotype control was used as a background.
The quantities of B cells and NK cells in the peripheral blood of all mice were determined by direct immunofluorescent antibody technique with the flow cytometric method. Monoclonal antibodies against mouse B cell antigen CD19 or against mouse Pan NK cell antigen CD49b were used.

PC-3 cell antigens = assay: Serum antibodies against cultured PC-3 cells, indirect immunofluorescence with flow cytometry; format: in vivo, mice
Protocol: The reaction of serum antibodies from mice on the experimental or control diet with cultured PC-3 cells was analyzed with an indirect immunofluorescent antibody technique. A fluoresecin-labeled goat IgG-(Fab′)2 antibody against mouse Ig was used as the second antibody. PC-3 cells stained with a nonspecific mouse IgG as the first antibody were used as a background. The proportion of the positively stained cells and the mean fluorescence intensity were analyzed with the intensity channel on a flow cytometer.
Mouse sera were incubated with cultured PC-3 cells to detect the presence and reactivity of antibodies against PC-3 antigens using an indirect immunofluorescent antibody technique. The proportion of the positively stained cells and the mean fluorescence intensity were analyzed by a flow cytometric method. […] For example, at the titer of 20, the antisera from mice on experimental diet detected approximately 24-38% cells while approximately 7-16% cells detected with the sera from mice on the control diet.

xenografted PC-3 tumors [2] = assay: Histology and immunohistochemical staining of xenografted tumor tissue for immune cells and bound mouse Ig; format: in vivo, mice
From the text: as §1
The changes of B and NK cells were further examined in the-frozen and paraffin embedded xenografted tumor tissues by for immunohistochemical staining. Mouse B cells were identified with a primary monoclonal rat anti-B220 antibody, and NK cells of immunodeficient mice detected with a rat anti-mouse CD90.2 (18) primary antibody (BD PharMingen). A biotin-conjugated goat anti-rat Ig was used as a secondary antibody, with chromogen color development using an ImmunoCruz Staining System (Santa Cruz Biotechnology). A rat IgG2aK was used as an isotype control. The binding of mouse Ig to xenografted tumor cells was determined by a direct antibody staining method using a biotinylated goat anti-mouse Ig (BD PhaMingen), or an isotype Ig control.

xenografted PC-3 tumors [3] = assay: Apoptotic cells in xenografted tumors by TUNEL; format: in vivo, mice; settings: nine weeks PEITC-NAC diet
Protocol: The apoptotic cells of xenografted tumors were determined with paraffin embedded tissue slides by the characteristic nucleus morphology, and by the presence of DNA strand breaks using the terminal deoxynucleotidyl tranferase-mediated biotinylated UTP nick end labeling (TUNEL). An in situ detection kit from Roche Molecular Biochemicals, Indianapolis, Ind. was employed according to manufacturer's direction (17). Multiple fields, but not necrotic tissues, were determined for apoptotic cells.

[4] = system: PARP (poly (ADP-ribose) polymerase); assay: Western blot of PARP cleavage in xenografted tumors; format: in vivo, human; settings: pooled experimental tumors vs control
Protocol: (§2) The protein levels of xenografts were determined by Western blot analyses using standard procedures (19). Total proteins were prepared from each group of pooled individual xenografts of equal weight. The tissues were homogenized in the presence of a lysis buffer with protease inhibitors (17) and lysates collected after centrifugation at 4° C. Polyclonal antibodies against human p21^WAF-1/Cip-1, p27^Kip1, cyclin E, and an anti-cyclin D1 cross reactive with cyclins D2 and D3, an anti-Rb reactive with both phosphorylated and non-phosphorylated proteins, and an antibody against intact poly (ADP-ribose) polymerase (PARP) and the 89 kDa fragment were purchased from Santa Cruz Biotechnology. Preferably the endogenous cyclin-dependent kinase inhibitors are p151NK4B, p161NK4A, p181NK4C, p191NK4D, p21WAF-1/Cip-1, p27Kip1 and/or p57 that inhibit cyclin-dependent kinases.

xenografted PC-3 tumors [5] = assay: Proliferating (BrdU-labeled) and mitotic cells in xenografted tumors; format: in vivo, mice
From the text: as §1

cyclin D1 = assay: Western blot of xenografted tumors: cyclin D1; format: in vivo, human; settings: pooled experimental tumors vs controls
Protocol: as §2

Rb = assay: Western blot of xenografted tumors: Rb phosphorylation; format: in vivo, human; settings: experimental tumors vs controls
Protocol: as §2

[6] = system: human prostate cancer PC-3 cells; assay: Xenograft tumor assay, PC-3 cells in BALB/c (nu/nu) mice; format: in vivo
From the text: as §1

[7] = From the text: as §1
PC-3 cells = assay: Cell cycle phases of cultured PC-3 cells by flow cytometry; format: cell-based, human; settings: exposure for 24 hours in cultures
Protocol: The product was crystallized from hexane, and purity established by HPLC, NMR and MS; purity was greater than 98%. A human prostate cancer cell line, androgen-independent PC-3 was used as antigen in this invention. PC-3 cells were seeded at 1.5×10^5 cells/ml in RPMI-1640 containing 15% heat inactivated fetal calf serum with 1% penicillin (10,000 units/ml) and streptomycin (10,000 μg/ml) (15). Cell cycle phase determination was performed using a BD FACScan cytometer according to published procedures (16, 17). The cells were fixed with 80% ethanol at 4° C. and incubated on ice before the DNA was stained with propidium iodide (50 μg/ml).

prostate cancer cells = settings: earlier report (ref. 12); cited from earlier work

## CC(=O)N[C@@H](CSC(=S)NCCc1ccccc1)C(=O)O [PEITC-NAC, N-acetylcysteine conjugate of phenethyl isothiocyanate]
[1]; average of 3 experimental mice, control average 24.4, PEITC-NAC diet 8 μmol/g
  Mean of NK Cells (%), average of experimental mice: 30.5%
[1]; average of 3 experimental mice, control average 30.5, PEITC-NAC diet 8 μmol/g
  Mean of B Cells (%), average of experimental mice: 42.0%
[1]; individual experimental mice, peripheral blood, CD19, % of total mononuclear cells, PEITC-NAC diet 8 μmol/g of AIN-76A, 30 days, PC-3 xenografted nude mice
  Mean of B Cells (%): 45.8% and 42.1% and 38.3%
[1]; individual experimental mice, peripheral blood, CD49b, % of total mononuclear cells, PEITC-NAC diet 8 μmol/g of AIN-76A, 30 days, PC-3 xenografted nude mice
  Mean of NK Cells (%): 27.6% and 38.0% and 26.0%
PC-3 cell antigens; 6 weeks after injection of PC-3 cells, vs basal control diet
  antisera titer against PC-3 cell antigens: higher titer
PC-3 cell antigens; antisera from experimental diet mice vs control mice sera
  mean fluorescence on stained PC-3 cells: significantly more intense
PC-3 cell antigens; serum titer of 20, mice on experimental diet, control diet 7-16%
  PC-3 cells detected by antisera: 24-38%
Xenografted PC-3 tumors [2]; H & E sections, after nine weeks of PEITC-NAC diet, not in control mice
  lymphocytes around tumor nodules: surrounded by aggregates of small lymphocytes
Xenografted PC-3 tumors [2]; immunohistochemical staining, PEITC-NAC treated mice
  NK cell receptor NKG2A/C/E among infiltrating cells: demonstrated among cells infiltrating around the tumor nodules
Xenografted PC-3 tumors [2]; immunohistochemical staining, experimental tumors
  B220 staining of lymphocytes around tumor nodules: great majority of them were B cells bearing marker B220
Xenografted PC-3 tumors [2]; immunohistochemical staining, marker for T and NK cells
  CD90.2 staining of lymphocytes around tumor nodules: Small quantity of lymphocytes stained positive for CD90.2
Xenografted PC-3 tumors [2]; immunoperoxidase staining, experimental but not control tumors
  mouse immunoglobulins bound to xenografted tumor cells: bound mouse immunoglobulins
Xenografted PC-3 tumors [3]
  elevation of apoptotic rate vs control tumors: approximately two
Xenografted PC-3 tumors [3]; control 14.4%, P=0.02
  average apoptotic rate of tumors: 29.29%
[4]
  cleaved PARP fragments incl. 89 kDa fragment: Significant increase of the cleaved fragments
Xenografted PC-3 tumors [5]; BrdU labeling, tumors at autopsy
  proliferating cells, less than in control mice: approximately 75%
Xenografted PC-3 tumors [5]; tumors from PEITC-NAC fed mice, control greater than five per field
  mitotic figures: three
Cyclin D1
  reduced expression of cyclin D1: 32%
Rb
  Rb phosphorylation: significant reduction of Rb phosphorylation
[6]; PEITC-NAC diet 8 μmol/g, control 100%
  tumor incidence: 88%
[6]; after inoculation of PC-3 cells, PEITC-NAC diet 8 μmol/g, control 7-10 days
  time for tumors to be palpable: 7 to 22 days
[6]; during study period, P<0.05
  tumor volumes vs control tumors: smaller
[6]; mice fed with PEITC-NAC diet
  mice with tumor inhibition: 100%
[7]; PEITC-NAC diet
  daily food consumption, less than control mice: approximately 6.5%
[7]; at autopsy, P>0.13
  average weights of kidneys and spleens vs controls: the difference was not significant
[7]; experimental mice, control mice 21.89 g
  average body weight at termination: 20.93 g
[7]; throughout the study period, PEITC-NAC diet
  behavior of animals: no signs of unusual behavior
PC-3 cells
  cell cycle phases of PC-3 cells: concentration-related reduction of S- and G2M-phases
Prostate cancer cells
  growth of prostate cancer cells in cultures: significantly inhibited
